Data published in ChEMBL document CHEMBL2177009, “The use of novel C-methylated spermidine derivatives to investigate the regulation of polyamine metabolism” (J Med Chem, 2011).
Calls of active or inactive are those of the source. The calls are words filed in the database; no cut-off is given here.

Assays:
[1] = tested on: Nucleic Acid; assay: Induction of SSAT alternative splicing in mouse primary fetal fibroblasts assessed as SSAT-X mRNA at 100 uM by qRT-PCR in presence of CHX relative to total SSAT mRNA
[2] = biological target: Peroxisomal N(1)-acetyl-spermine/spermidine oxidase (Homo sapiens) (UniProt Q6QHF9); assay: Activity of APAO in human DU145 cells assessed per ug DNA at 100 uM after 48 hrs in presence of serum amine oxidase inhibitor aminoguanidine (RVb = 699 +/- 21 pmol/h per ug DNA); type: cell-based; conditions: DU-145
[3] = biological target: Spermine oxidase (Homo sapiens) (UniProt Q9NWM0); assay: Activity of spermine oxidase in human DU145 cells assessed per ug DNA at 100 uM after 24 hrs in presence of serum amine oxidase inhibitor aminoguanidine (RVb = 493 +/- 22 pmol/h per ug DNA); type: cell-based; conditions: DU-145
[4] = biological target: Spermine oxidase (Homo sapiens) (UniProt Q9NWM0); assay: Activity of spermine oxidase in human DU145 cells assessed per ug DNA at 100 uM after 72 hrs in presence of serum amine oxidase inhibitor aminoguanidine (RVb = 742 +/- 10 pmol/h per ug DNA); type: cell-based; conditions: DU-145
[5] = biological target: Diamine acetyltransferase 1 (Homo sapiens) (UniProt P21673); assay: Activity of SSAT in human DU145 cells assessed per ug DNA at 100 uM after 48 hrs in presence of serum amine oxidase inhibitor aminoguanidine (RVb = 58 pmol/h per ug DNA); type: cell-based; conditions: DU-145
[6] = biological target: T1, Ornithine decarboxylase (Homo sapiens) (UniProt P11926); assay: Activity of ornithine decarboxylase in human DU145 cells assessed per ug DNA at 100 uM after 48 hrs in presence of serum amine oxidase inhibitor aminoguanidine (RVb = 17.7+/- 2.6 pmol/h per ug DNA); type: cell-based; conditions: DU-145
T1 sequence (whole entry): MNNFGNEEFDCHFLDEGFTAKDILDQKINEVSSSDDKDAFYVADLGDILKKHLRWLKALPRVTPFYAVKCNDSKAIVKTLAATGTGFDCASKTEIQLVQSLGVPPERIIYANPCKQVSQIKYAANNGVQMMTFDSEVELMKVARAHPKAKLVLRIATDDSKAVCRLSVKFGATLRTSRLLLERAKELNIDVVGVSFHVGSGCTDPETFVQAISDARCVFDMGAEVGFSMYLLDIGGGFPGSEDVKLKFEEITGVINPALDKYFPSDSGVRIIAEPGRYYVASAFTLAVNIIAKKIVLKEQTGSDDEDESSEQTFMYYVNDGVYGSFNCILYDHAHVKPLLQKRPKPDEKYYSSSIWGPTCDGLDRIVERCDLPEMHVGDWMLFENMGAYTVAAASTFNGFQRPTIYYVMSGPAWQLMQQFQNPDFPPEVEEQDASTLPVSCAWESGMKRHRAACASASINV

[7] = biological target: T1, Ornithine decarboxylase (Homo sapiens); assay: Activity of ornithine decarboxylase in human DU145 cells assessed per ug DNA at 100 uM after 72 hrs in presence of serum amine oxidase inhibitor aminoguanidine (RVb = 7.5+/- 0.9 pmol/h per ug DNA); type: cell-based; conditions: DU-145
[8] = biological target: Peroxisomal N(1)-acetyl-spermine/spermidine oxidase (Homo sapiens) (UniProt Q6QHF9); assay: Activity of APAO in human DU145 cells assessed per ug DNA at 100 uM after 72 hrs in presence of serum amine oxidase inhibitor aminoguanidine (RVb = 662 +/- 48 pmol/h per ug DNA); type: cell-based; conditions: DU-145
[9] = biological target: Spermine oxidase (Homo sapiens) (UniProt Q9NWM0); assay: Activity of spermine oxidase in human DU145 cells assessed per ug DNA at 100 uM after 48 hrs in presence of serum amine oxidase inhibitor aminoguanidine (RVb = 680 +/- 29 pmol/h per ug DNA); type: cell-based; conditions: DU-145
[10] = biological target: T2, S-adenosylmethionine decarboxylase proenzyme (Homo sapiens) (UniProt P17707); assay: Activity of S-adenosyl-L-methionine decarboxylase in human DU145 cells assessed per ug DNA at 100 uM after 24 hrs in presence of serum amine oxidase inhibitor aminoguanidine (RVb = 61 +/- 5 pmol/h per ug DNA); type: cell-based; conditions: DU-145
T2 sequence (whole entry): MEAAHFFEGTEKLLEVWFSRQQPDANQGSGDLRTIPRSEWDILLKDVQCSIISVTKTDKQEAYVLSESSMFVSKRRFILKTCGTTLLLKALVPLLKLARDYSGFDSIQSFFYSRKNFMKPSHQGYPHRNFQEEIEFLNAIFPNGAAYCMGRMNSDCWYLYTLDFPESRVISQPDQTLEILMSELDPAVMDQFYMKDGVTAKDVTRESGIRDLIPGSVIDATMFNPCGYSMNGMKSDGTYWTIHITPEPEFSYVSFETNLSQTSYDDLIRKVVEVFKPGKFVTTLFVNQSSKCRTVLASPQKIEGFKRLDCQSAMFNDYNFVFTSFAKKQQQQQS

[11] = biological target: T2, S-adenosylmethionine decarboxylase proenzyme (Homo sapiens); assay: Activity of S-adenosyl-L-methionine decarboxylase in human DU145 cells assessed per ug DNA at 100 uM after 72 hrs in presence of serum amine oxidase inhibitor aminoguanidine (RVb = 72 +/- 6 pmol/h per ug DNA); type: cell-based; conditions: DU-145
[12] = biological target: Diamine acetyltransferase 1 (Homo sapiens) (UniProt P21673); assay: Activity of SSAT in human DU145 cells assessed per ug DNA at 100 uM after 72 hrs in presence of serum amine oxidase inhibitor aminoguanidine (RVb = 62 +/- 4 pmol/h per ug DNA); type: cell-based; conditions: DU-145
[13] = tested on: DU-145; assay: Displacement of [14C]-spermidine from polyamine transporter in human DU145 cells at 1 to 100 uM after 10 mins; type: cell-based
[14] = biological target: T2, S-adenosylmethionine decarboxylase proenzyme (Homo sapiens); assay: Activity of S-adenosyl-L-methionine decarboxylase in human DU145 cells assessed per ug DNA at 100 uM after 48 hrs in presence of serum amine oxidase inhibitor aminoguanidine (RVb = 73 +/- 1 pmol/h per ug DNA); type: cell-based; conditions: DU-145
[15] = biological target: T1, Ornithine decarboxylase (Homo sapiens); assay: Activity of ornithine decarboxylase in human DU145 cells assessed per ug DNA at 100 uM after 24 hrs in presence of serum amine oxidase inhibitor aminoguanidine (RVb = 29.3 +/- 1.4 pmol/h per ug DNA); type: cell-based; conditions: DU-145
[16] = biological target: Diamine acetyltransferase 1 (Homo sapiens) (UniProt P21673); assay: Activity of SSAT in human DU145 cells assessed per ug DNA at 100 uM after 24 hrs in presence of serum amine oxidase inhibitor aminoguanidine (RVb = 59 +/- 1 pmol/h per ug DNA); type: cell-based; conditions: DU-145
[17] = biological target: Peroxisomal N(1)-acetyl-spermine/spermidine oxidase (Homo sapiens) (UniProt Q6QHF9); assay: Activity of APAO in human DU145 cells assessed per ug DNA at 100 uM after 24 hrs in presence of serum amine oxidase inhibitor aminoguanidine (RVb = 540 +/- 61 pmol/h per ug DNA); type: cell-based; conditions: DU-145

Chain of Peroxisomal N(1)-acetyl-spermine/spermidine oxidase (Homo sapiens) (Q6QHF9 whole entry): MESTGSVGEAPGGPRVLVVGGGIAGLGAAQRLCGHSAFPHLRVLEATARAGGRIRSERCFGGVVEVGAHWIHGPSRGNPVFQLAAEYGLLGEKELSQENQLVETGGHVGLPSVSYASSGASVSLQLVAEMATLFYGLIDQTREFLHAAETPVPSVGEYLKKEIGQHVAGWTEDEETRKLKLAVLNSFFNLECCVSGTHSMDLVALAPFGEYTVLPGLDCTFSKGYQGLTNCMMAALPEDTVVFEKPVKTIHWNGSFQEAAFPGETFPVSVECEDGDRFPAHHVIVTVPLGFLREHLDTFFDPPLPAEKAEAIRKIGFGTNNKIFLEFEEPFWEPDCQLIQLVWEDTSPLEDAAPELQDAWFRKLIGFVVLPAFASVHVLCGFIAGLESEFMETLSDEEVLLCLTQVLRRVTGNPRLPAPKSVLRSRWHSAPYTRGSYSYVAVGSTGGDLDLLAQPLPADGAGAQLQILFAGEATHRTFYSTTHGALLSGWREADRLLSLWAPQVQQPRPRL
Chain of Spermine oxidase (Homo sapiens) (Q9NWM0 whole entry): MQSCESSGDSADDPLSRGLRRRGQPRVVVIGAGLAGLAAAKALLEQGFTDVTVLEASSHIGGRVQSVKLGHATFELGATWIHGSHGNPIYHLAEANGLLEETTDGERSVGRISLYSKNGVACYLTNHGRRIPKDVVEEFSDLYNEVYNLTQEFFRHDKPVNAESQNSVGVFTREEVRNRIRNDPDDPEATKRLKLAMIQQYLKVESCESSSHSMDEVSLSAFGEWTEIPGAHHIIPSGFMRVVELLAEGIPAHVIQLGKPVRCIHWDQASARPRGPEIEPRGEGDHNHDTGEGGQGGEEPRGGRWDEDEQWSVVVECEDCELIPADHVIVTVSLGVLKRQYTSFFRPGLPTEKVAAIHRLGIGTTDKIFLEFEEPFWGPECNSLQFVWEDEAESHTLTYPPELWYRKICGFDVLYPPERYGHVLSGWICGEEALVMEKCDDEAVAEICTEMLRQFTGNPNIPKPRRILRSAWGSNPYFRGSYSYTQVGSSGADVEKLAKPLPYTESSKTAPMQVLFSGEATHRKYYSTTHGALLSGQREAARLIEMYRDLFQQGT
Chain of Diamine acetyltransferase 1 (Homo sapiens) (P21673 whole entry): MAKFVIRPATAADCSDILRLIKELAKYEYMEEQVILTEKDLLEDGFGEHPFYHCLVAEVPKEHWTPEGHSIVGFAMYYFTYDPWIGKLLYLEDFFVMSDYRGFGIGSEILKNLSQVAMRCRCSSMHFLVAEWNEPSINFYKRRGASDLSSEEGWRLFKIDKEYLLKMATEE

SMILES | Activity [1] | Activity [2] [pmol/h] | Activity [3] [pmol/h] | Activity [4] [pmol/h] | Activity [5] [pmol/h] | Activity [6] [pmol/h] | Activity [7] [pmol/h] | Activity [8] [pmol/h] | Activity [9] [pmol/h] | Activity [10] [pmol/h] | Activity [11] [pmol/h] | Activity [12] [pmol/h] | Activity [14] [pmol/h] | Activity [15] [pmol/h] | Activity [16] [pmol/h] | Activity [17] [pmol/h] | Activity [13]
CCNCCCNCCCNCCCNCC | Active |  |  |  |  |  |  |  |  |  |  |  |  |  |  |  | 
CC(N)CCCNCCCN (stereo not given) | Active | 770 | 515 | 832 | 62 | 5.5 | 3.8 | 737 | 738 | 53 | 63 | 61 | 67 | 4.7 | 65 | 562 | Active
NCCCCNCCCN |  |  |  |  |  |  |  |  |  |  |  |  |  |  |  |  | Active
C[C@H](N)CCNCCCCN | Active | 779 | 362 | 754 | 61 | 4.4 | 3.5 | 745 | 695 | 64 | 75 | 66 | 72 | 4.3 | 67 | 545 | Active

More lines, main results first:

Activity [1] | Activity [2] [pmol/h] | Activity [3] [pmol/h] | Activity [4] [pmol/h] | Activity [5] [pmol/h] | Activity [6] [pmol/h] | Activity [7] [pmol/h] | Activity [8] [pmol/h] | Activity [9] [pmol/h] | Activity [10] [pmol/h] | Activity [11] [pmol/h] | Activity [12] [pmol/h] | Activity [14] [pmol/h] | Activity [15] [pmol/h] | Activity [16] [pmol/h] | Activity [17] [pmol/h] | SMILES | Activity [13]
Active | 719 | 394 | 608 | 59 | 16.6 | 9.1 | 732 | 655 | 67 | 79 | 61 | 71 | 21.7 | 56 | 562 | CC(CN)CNCCCCN (stereo not given) | Active
Active | 693 | 204 | 571 | 59 | 9.3 | 5.4 | 775 | 474 | 53 | 58 | 69 | 60 | 8.8 | 62 | 528 | CC(CCN)NCCCCN (stereo not given) | Active
